Each structure is given as a SMILES string.

These results are taken from paper PMC4174996 (Journal of Medicinal Chemistry, 2014).

A short description of this data set: Serum stability test. The format is in vitro ADME. The following applies: human, diluted human serum (25%).

Turning to `CC[C@H](C)[C@H](NC(=O)[C@@H](NC(=O)[C@@H]1CCCN1C(=O)[C@H](Cc1c[nH]cn1)NC(=O)[C@@H]1CCCN1C(=O)CN)C(C)C)C(=O)N[C@H](C(=O)N[C@H](C(=O)N[C@H](C(=O)NCC(=O)N1CCC[C@H]1C(=O)N[C@@H](Cc1c[nH]cn1)C(=O)N[C@@H](CCC(=O)O)C(=O)N[C@@H](CCC(=O)O)C(N)=O)[C@@H](C)O)[C@@H](C)CC)C(C)C` [VIVIT], the half-life at 50 µM was roughly 1 h.
